In patent publication US20170143701A1, “CARBOHYDRATE METABOLISM-AMELIORATING AGENT” (SUNTORY HOLDINGS LIMITED, priority 2014, published 2017):

Tested on: C57/BL6J mice
Assay: In vivo plasma GLP-1 level-increasing action: plasma active GLP-1 level (ELISA) after oral administration
Details: 10 mg/kg oral; for Significant difference (p < 0.05) vs control group, plasma active GLP-1 level: 30 minutes, Student's t-test; for Plasma active GLP-1 level (relative value to control group as 100), average value: blood 30 minutes after, 0.5% CMC-Na group = 100
Procedure: Seven-week-old male C57/BL6J mice were purchased from CLEA Japan, Inc. for use, and they were subjected to an experiment after 1 week of a habituation period.
After the habituation period, the mice were subjected to 5.5 hours of food deprivation and 2 hours of water deprivation. Thereafter, a cyclic dipeptide dissolved or suspended in a 0.5% CMC-Na aqueous solution in 10 mg/kg was orally administered to each mouse forcibly. After 30 minutes, the blood was collected from the abdominal vena cava under anesthesia, and 1 μL of heparin sodium and 1 μL of 10 mM Sitagliptin phosphate were added to each collected blood, which was then subjected to centrifugation at 8000 rpm for 10 minutes to recover the plasma, and the plasma active GLP-1 level was measured by using the ELISA kit. In the analysis, the active GLP-1 level for a group administered with 0.5% CMC-Na aqueous solution was defined as 100, and relative values thereto were used.

Structure (SMILES): O=C1CNC(=O)[C@H](Cc2ccccc2)N1 [compound 8, Cyclo(Gly-Phe)]
- Significant difference (p < 0.05) vs control group, plasma active GLP-1 level (Table 9, Experiment 4): No
- Plasma active GLP-1 level (relative value to control group as 100), average value (Table 9, Experiment 4): 85

Structure (SMILES): CC(C)[C@@H]1NC(=O)[C@H](C(C)C)NC1=O [compound 11, Cyclo(Val-Val)]
- Significant difference (p < 0.05) vs control group, plasma active GLP-1 level (Table 9, Experiment 4): No
- Plasma active GLP-1 level (relative value to control group as 100), average value (Table 9, Experiment 4): 100

Structure (SMILES): CSCCC1NC(=O)C(CCSC)NC1=O (stereo not drawn) [compound 12, Cyclo(Met-Met)]
- Significant difference (p < 0.05) vs control group, plasma active GLP-1 level (Table 9, Experiment 4): No
- Plasma active GLP-1 level (relative value to control group as 100), average value (Table 9, Experiment 4): 110

Structure (SMILES): O=C1NC(Cc2ccccc2)C(=O)N2CCCC12 (stereo not drawn) [compound 13, Cyclo(Phe-Pro)]
- Significant difference (p < 0.05) vs control group, plasma active GLP-1 level (Table 9, Experiment 4): No
- Plasma active GLP-1 level (relative value to control group as 100), average value (Table 9, Experiment 4): 120

Structure (SMILES): CC[C@H](C)[C@@H]1NC(=O)[C@H]([C@@H](C)CC)NC1=O [compound 14, Cyclo(Ile-Ile)]
- Significant difference (p < 0.05) vs control group, plasma active GLP-1 level (Table 9, Experiment 4): No
- Plasma active GLP-1 level (relative value to control group as 100), average value (Table 9, Experiment 4): 105

Structure (SMILES): CC(C)C[C@@H]1NC(=O)[C@H](CC(C)C)NC1=O [compound 15, Cyclo(Leu-Leu)]
- Significant difference (p < 0.05) vs control group, plasma active GLP-1 level (Table 9, Experiment 4): No
- Plasma active GLP-1 level (relative value to control group as 100), average value (Table 9, Experiment 4): 95

Structure (SMILES): CC(C)C[C@@H]1NC(=O)[C@H](Cc2ccccc2)NC1=O [compound 16, Cyclo(Leu-Phe)]
- Significant difference (p < 0.05) vs control group, plasma active GLP-1 level (Table 9, Experiment 4): No
- Plasma active GLP-1 level (relative value to control group as 100), average value (Table 9, Experiment 4): 105

Structure (SMILES): O=C1N[C@@H](Cc2ccccc2)C(=O)N[C@H]1Cc1ccccc1 [compound 17, cyclo-phenylalanyl-phenylalanine]
- Significant difference (p < 0.05) vs control group, plasma active GLP-1 level (Table 8, Experiment 3): Yes
- Plasma active GLP-1 level (relative value to control group as 100), average value (Table 8, Experiment 3): 203

Structure (SMILES): O=C1N[C@@H](Cc2c[nH]c3ccccc23)C(=O)N[C@H]1Cc1ccc(O)cc1 [compound 22, cyclo-tryptophanyl-tyrosine]
- Significant difference (p < 0.05) vs control group, plasma active GLP-1 level (Table 8, Experiment 3): Yes
- Plasma active GLP-1 level (relative value to control group as 100), average value (Table 8, Experiment 3): 203

Structure (SMILES): O=C1CNC(=O)C(Cc2c[nH]c3ccccc23)N1 (stereo not drawn) [compound 26, cyclo-glycyl-tryptophan]
- Significant difference (p < 0.05) vs control group, plasma active GLP-1 level (Table 8, Experiment 3): Yes
- Plasma active GLP-1 level (relative value to control group as 100), average value (Table 8, Experiment 3): 264

Structure (SMILES): O=C1NC(Cc2c[nH]c3ccccc23)C(=O)NC1Cc1ccccc1 (stereo not drawn) [compound 28, cyclo-phenylalanyl-tryptophan]
- Significant difference (p < 0.05) vs control group, plasma active GLP-1 level (Table 8, Experiment 3): Yes
- Plasma active GLP-1 level (relative value to control group as 100), average value (Table 8, Experiment 3): 255

Structure (SMILES): O=C1N[C@@H](Cc2ccc(O)cc2)C(=O)N[C@H]1CO [compound 29, Cyclo(Ser-Tyr)]
- Significant difference (p < 0.05) vs control group, plasma active GLP-1 level (Table 9, Experiment 4): No
- Plasma active GLP-1 level (relative value to control group as 100), average value (Table 9, Experiment 4): 95

Structure (SMILES): O=C1N[C@@H](Cc2ccc(O)cc2)C(=O)N2CCC[C@@H]12 [compound 30, Cyclo(Pro-Tyr)]
- Significant difference (p < 0.05) vs control group, plasma active GLP-1 level (Table 9, Experiment 4): No
- Plasma active GLP-1 level (relative value to control group as 100), average value (Table 9, Experiment 4): 95

Structure (SMILES): O=C(O)C[C@@H]1NC(=O)[C@H](Cc2ccccc2)NC1=O [compound 33, Cyclo(Asp-Phe)]
- Significant difference (p < 0.05) vs control group, plasma active GLP-1 level (Table 9, Experiment 4): No
- Plasma active GLP-1 level (relative value to control group as 100), average value (Table 9, Experiment 4): 90

Structure (SMILES): O=C1N[C@@H](Cc2cnc[nH]2)C(=O)N[C@H]1Cc1ccccc1 [compound 38, cyclo-histidyl-phenylalanine]
- Significant difference (p < 0.05) vs control group, plasma active GLP-1 level (Table 8, Experiment 3): Yes
- Plasma active GLP-1 level (relative value to control group as 100), average value (Table 8, Experiment 3): 264

Structure (SMILES): CC(C)C[C@@H]1NC(=O)[C@H](Cc2c[nH]c3ccccc23)NC1=O [compound 39, cyclo-leucyl-tryptophan]
- Significant difference (p < 0.05) vs control group, plasma active GLP-1 level (Table 8, Experiment 3): Yes
- Plasma active GLP-1 level (relative value to control group as 100), average value (Table 8, Experiment 3): 229

Structure (SMILES): O=C1CNC(=O)C(Cc2ccc(O)cc2)N1 (stereo not drawn) [compound 42, Cyclo(Tyr-Gly)]
- Significant difference (p < 0.05) vs control group, plasma active GLP-1 level (Table 10, Experiment 5): No
- Plasma active GLP-1 level (relative value to control group as 100), average value (Table 10, Experiment 5): 97

Structure (SMILES): CC(C)C[C@@H]1NC(=O)[C@H](C)NC1=O [compound 44, cyclo-alanyl-leucine]
- Significant difference (p < 0.05) vs control group, plasma active GLP-1 level (Table 8, Experiment 3): Yes
- Plasma active GLP-1 level (relative value to control group as 100), average value (Table 8, Experiment 3): 255

Structure (SMILES): O=C1N[C@@H](Cc2ccc(O)cc2)C(=O)N[C@H]1Cc1ccc(O)cc1 [compound 49, Cyclo(Tyr-Tyr)]
- Significant difference (p < 0.05) vs control group, plasma active GLP-1 level (Table 10, Experiment 5): No
- Plasma active GLP-1 level (relative value to control group as 100), average value (Table 10, Experiment 5): 100

Structure (SMILES): CC1NC(=O)C(Cc2ccccc2)NC1=O (stereo not drawn) [compound 52, Cyclo(Ala-Phe)]
- Significant difference (p < 0.05) vs control group, plasma active GLP-1 level (Table 10, Experiment 5): No
- Plasma active GLP-1 level (relative value to control group as 100), average value (Table 10, Experiment 5): 93

Structure (SMILES): O=C(O)CCC1NC(=O)C(Cc2ccccc2)NC1=O (stereo not drawn) [compound 53, Cyclo(Glu-Phe)]
- Significant difference (p < 0.05) vs control group, plasma active GLP-1 level (Table 10, Experiment 5): No
- Plasma active GLP-1 level (relative value to control group as 100), average value (Table 10, Experiment 5): 93

Structure (SMILES): CC(C)[C@@H]1NC(=O)[C@H](Cc2ccccc2)NC1=O [compound 54, Cyclo(Val-Phe)]
- Significant difference (p < 0.05) vs control group, plasma active GLP-1 level (Table 6, Experiment 1): No
- Significant difference (p < 0.05) vs control group, plasma active GLP-1 level (Table 10, Experiment 5): No

Structure (SMILES): CCC(C)C1NC(=O)C(Cc2ccccc2)NC1=O (stereo not drawn) [compound 55, Cyclo(Ile-Phe)]
- Significant difference (p < 0.05) vs control group, plasma active GLP-1 level (Table 10, Experiment 5): No
- Plasma active GLP-1 level (relative value to control group as 100), average value (Table 10, Experiment 5): 90

Structure (SMILES): CC(O)C1NC(=O)C(Cc2ccccc2)NC1=O (stereo not drawn) [compound 56, Cyclo(Thr-Phe)]
- Significant difference (p < 0.05) vs control group, plasma active GLP-1 level (Table 10, Experiment 5): No
- Plasma active GLP-1 level (relative value to control group as 100), average value (Table 10, Experiment 5): 87

Structure (SMILES): CC(C)[C@@H]1NC(=O)[C@H](Cc2c[nH]c3ccccc23)NC1=O [compound 61, Cyclo(Trp-Val)]
- Significant difference (p < 0.05) vs control group, plasma active GLP-1 level (Table 8, Experiment 3): No
- Plasma active GLP-1 level (relative value to control group as 100), average value (Table 8, Experiment 3): 117

Structure (SMILES): CCC(C)C1NC(=O)C(Cc2c[nH]c3ccccc23)NC1=O (stereo not drawn) [compound 62, Cyclo(Trp-Ile)]
- Significant difference (p < 0.05) vs control group, plasma active GLP-1 level (Table 8, Experiment 3): No
- Plasma active GLP-1 level (relative value to control group as 100), average value (Table 8, Experiment 3): 178

Structure (SMILES): NC(=O)CC1NC(=O)C(Cc2ccccc2)NC1=O (stereo not drawn) [compound 64, Cyclo(Asn-Phe)]
- Significant difference (p < 0.05) vs control group, plasma active GLP-1 level (Table 10, Experiment 5): No
- Plasma active GLP-1 level (relative value to control group as 100), average value (Table 10, Experiment 5): 93

Structure (SMILES): CSCCC1NC(=O)C(Cc2ccccc2)NC1=O (stereo not drawn) [compound 67, Cyclo(Met-Phe)]
- Significant difference (p < 0.05) vs control group, plasma active GLP-1 level (Table 10, Experiment 5): No
- Plasma active GLP-1 level (relative value to control group as 100), average value (Table 10, Experiment 5): 93

Structure (SMILES): CSCCC1NC(=O)C(CCCCN)NC1=O (stereo not drawn) [compound 70, Cyclo(Met-Lys)]
- Significant difference (p < 0.05) vs control group, plasma active GLP-1 level (Table 10, Experiment 5): No
- Plasma active GLP-1 level (relative value to control group as 100), average value (Table 10, Experiment 5): 93

Structure (SMILES): CCC(C)C1NC(=O)C(CC(C)C)NC1=O (stereo not drawn) [compound 71, Cyclo(Ile-Leu)]
- Significant difference (p < 0.05) vs control group, plasma active GLP-1 level (Table 11, Experiment 6): No
- Plasma active GLP-1 level (relative value to control group as 100), average value (Table 11, Experiment 6): 79

Structure (SMILES): CSCC[C@@H]1NC(=O)[C@H](CC(C)C)NC1=O [compound 72, Cyclo(Met-Leu)]
- Significant difference (p < 0.05) vs control group, plasma active GLP-1 level (Table 11, Experiment 6): No
- Plasma active GLP-1 level (relative value to control group as 100), average value (Table 11, Experiment 6): 90

Structure (SMILES): O=C1N[C@@H](Cc2c[nH]c3ccccc23)C(=O)N[C@H]1Cc1c[nH]c2ccccc12 [compound 75, cyclo-tryptophanyl-tryptophan]
- Significant difference (p < 0.05) vs control group, plasma active GLP-1 level (Table 8, Experiment 3): Yes
- Plasma active GLP-1 level (relative value to control group as 100), average value (Table 8, Experiment 3): 229

Structure (SMILES): CC1NC(=O)C(Cc2c[nH]c3ccccc23)NC1=O (stereo not drawn) [compound 76, Cyclo(Trp-Ala)]
- Significant difference (p < 0.05) vs control group, plasma active GLP-1 level (Table 11, Experiment 6): No
- Plasma active GLP-1 level (relative value to control group as 100), average value (Table 11, Experiment 6): 110

Structure (SMILES): O=C(O)CCC1NC(=O)C(Cc2c[nH]c3ccccc23)NC1=O (stereo not drawn) [compound 77, Cyclo(Trp-Glu)]
- Significant difference (p < 0.05) vs control group, plasma active GLP-1 level (Table 11, Experiment 6): No
- Plasma active GLP-1 level (relative value to control group as 100), average value (Table 11, Experiment 6): 110

Structure (SMILES): C[C@@H](O)[C@@H]1NC(=O)[C@H](Cc2c[nH]c3ccccc23)NC1=O [compound 79, Cyclo(Trp-Thr)]
- Significant difference (p < 0.05) vs control group, plasma active GLP-1 level (Table 11, Experiment 6): No
- Plasma active GLP-1 level (relative value to control group as 100), average value (Table 11, Experiment 6): 100

Structure (SMILES): NC(=O)CC1NC(=O)C(Cc2c[nH]c3ccccc23)NC1=O (stereo not drawn) [compound 81, Cyclo(Trp-Asn)]
- Significant difference (p < 0.05) vs control group, plasma active GLP-1 level (Table 11, Experiment 6): No
- Plasma active GLP-1 level (relative value to control group as 100), average value (Table 11, Experiment 6): 100
